Reference: PMC3951999 (Cancer cell, 2011)

Key:
BV173 cells = test: Western blots of CRAF immunoprecipitates and lysates, BV173 cells; type: cell-based, human
CML = settings: first-line treatment of CML; ref Quintás-Cardama et al., 2009; cited from earlier work
[1] = test system: SW620 (KRAS^G12V), Panc1 (KRAS^G12D) and H460 (KRAS^Q61H) cells; test: Western blot for MEK and ERK activation in KRAS mutant cells; type: cell-based, human; settings: imatinib 10μM, nilotinib 1μM, dasatinib 5μM
[2] = test system: K562 cells expressing HRAS^G12V; type: cell-based, human; settings: pathway already saturated

Cc1ccc(NC(=O)c2ccc(CN3CCN(C)CC3)cc2)cc1Nc1nccc(-c2cccnc2)n1 [imatinib]
BCR-ABL and CRKL phosphorylation (BV173 cells): inhibited BCR-ABL and CRKL phosphorylation
MEK and ERK activity (BV173 cells): inhibited MEK and ERK
patients who do not achieve complete responses (CML): 20-30%
MEK and ERK activation [1]: activated MEK and ERK
MEK and ERK phosphorylation [2]: did not increase MEK and ERK phosphorylation
